Values joined by “and” are separate entries in the source; they are usually repeats but may differ in a detail not shown here. Equal entries are not always repeated.
Key:
Set-up in all cases: purchased Milipore (Millipore)
[1] = target: T1, Human adrenergic α1B receptor (Homo sapiens, UniProt P35368); assay: Radioligand binding, adrenergic α1B (Protocol Group B); details: Protocol Group B; for Percentage inhibition of ligand binding, Adrenergic α1B (0.1 μM) / inhibition at 0.1 µM: 0.1 μM compound; for Percentage inhibition of ligand binding, Adrenergic α1B (0.3 μM) / inhibition at 0.3 µM: 0.3 μM compound; for inhibition at 0.1 µM: read-out: Percentage inhibition of ligand binding, Adrenergic α1B (0.1 μM); for inhibition at 0.3 µM: read-out: Percentage inhibition of ligand binding, Adrenergic α1B (0.3 μM)
T1 sequence (P35368 1-520): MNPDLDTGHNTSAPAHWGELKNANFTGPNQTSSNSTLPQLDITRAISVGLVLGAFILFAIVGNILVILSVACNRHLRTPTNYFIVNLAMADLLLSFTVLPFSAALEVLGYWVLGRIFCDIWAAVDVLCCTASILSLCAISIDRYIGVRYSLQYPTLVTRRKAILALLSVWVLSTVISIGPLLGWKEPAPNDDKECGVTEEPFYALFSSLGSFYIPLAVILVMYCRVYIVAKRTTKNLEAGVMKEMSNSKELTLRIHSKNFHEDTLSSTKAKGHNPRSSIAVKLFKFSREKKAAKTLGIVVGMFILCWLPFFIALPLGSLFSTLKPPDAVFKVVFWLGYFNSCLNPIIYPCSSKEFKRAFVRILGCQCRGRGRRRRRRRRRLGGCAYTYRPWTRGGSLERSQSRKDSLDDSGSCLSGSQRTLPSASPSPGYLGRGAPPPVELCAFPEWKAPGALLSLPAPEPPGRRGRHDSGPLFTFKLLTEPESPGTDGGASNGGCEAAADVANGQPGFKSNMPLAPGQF
Procedure: To evaluate the activity of compounds in radioligand binding assays, Human adrenergic α1B receptor obtained from recombinant cell membrane from Milipore. Binding experiments were carried out in Tris-HCl buffer (50 mM Tris-HCl buffer, pH 7.4, 10 mM Mgcl2, 1 mM EDTA) as recommended by Milipore. Compounds were incubated with 0.3 nM [^3H]Prazosin for 60 min at 25° C. Non-specific binding was estimated in the presence of 10 μM prazosin. Receptor proteins were harvested on 0.33% PEI(poly-ethylenemine) soaked GFC filter mat, the specifically bound [^3H]Prazosin were counted to determine total binding. Compounds were screened at various concentrations, using 1% DMSO as vehicle. percent inhibition of specific binding was determined. Biochemical assay results are presented as the percent Inhibition of specific binding in Table B1b, or estimated Ki values in Table B1c.

[2] = target: T2, Human adrenergic α2B receptor (Homo sapiens, UniProt P18089); assay: Radioligand binding, adrenergic α2B (Protocol Group B); details: Protocol Group B; for Percentage inhibition of ligand binding, Adrenergic α2B (10 nM) / inhibition at 0.01 µM: 10 nM compound; for Percentage inhibition of ligand binding, Adrenergic α2B (10 nM): 0.01 µM; for Percentage inhibition of ligand binding, Adrenergic α2B (30 nM): 0.03 µM; for inhibition at 0.01 µM: read-out: Percentage inhibition of ligand binding, Adrenergic α2B (10 nM)
T2 sequence (P18089 1-450): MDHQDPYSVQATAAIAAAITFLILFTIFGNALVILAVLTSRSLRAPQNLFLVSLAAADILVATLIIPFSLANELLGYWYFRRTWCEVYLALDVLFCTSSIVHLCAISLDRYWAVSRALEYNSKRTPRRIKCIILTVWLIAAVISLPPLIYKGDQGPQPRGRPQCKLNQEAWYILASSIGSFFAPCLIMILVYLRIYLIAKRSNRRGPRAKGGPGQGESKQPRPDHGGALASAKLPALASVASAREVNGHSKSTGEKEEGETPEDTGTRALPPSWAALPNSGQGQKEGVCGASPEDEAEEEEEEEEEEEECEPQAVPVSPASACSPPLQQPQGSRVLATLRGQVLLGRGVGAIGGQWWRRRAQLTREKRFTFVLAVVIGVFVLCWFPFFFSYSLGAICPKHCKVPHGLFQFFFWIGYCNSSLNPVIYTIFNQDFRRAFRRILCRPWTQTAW
Procedure: To evaluate the activity of compounds in radioligand binding assays, Human adrenergic α2B receptor obtained from recombinant cell membrane from Milipore. Binding experiments were carried out in Tris-HCl buffer (50 mM Tris-HCl buffer, pH 7.4, 5 mM Mgcl2, 1 mM Cacl2, 0.2% BSA) as recommended by Milipore. […] Non-specific binding was estimated in the presence of 10 μM Rauwolscine. […] Compounds were screened at various concentrations, using 1% DMSO as vehicle. Biochemical assay results are presented as the percent Inhibition of specific binding in Table B1b, or estimated Ki values in Table B1c.

[3] = target: T3, Human adrenergic α2A receptor (Homo sapiens, UniProt P08913); assay: Radioligand binding, adrenergic α2A (Protocol Group B); details: Protocol Group B; for Percentage inhibition of ligand binding, Adrenergic α2A (0.1 μM) / inhibition at 0.1 µM: 0.1 μM compound; for inhibition at 0.1 µM: read-out: Percentage inhibition of ligand binding, Adrenergic α2A (0.1 μM)
T3 sequence (P08913 1-465): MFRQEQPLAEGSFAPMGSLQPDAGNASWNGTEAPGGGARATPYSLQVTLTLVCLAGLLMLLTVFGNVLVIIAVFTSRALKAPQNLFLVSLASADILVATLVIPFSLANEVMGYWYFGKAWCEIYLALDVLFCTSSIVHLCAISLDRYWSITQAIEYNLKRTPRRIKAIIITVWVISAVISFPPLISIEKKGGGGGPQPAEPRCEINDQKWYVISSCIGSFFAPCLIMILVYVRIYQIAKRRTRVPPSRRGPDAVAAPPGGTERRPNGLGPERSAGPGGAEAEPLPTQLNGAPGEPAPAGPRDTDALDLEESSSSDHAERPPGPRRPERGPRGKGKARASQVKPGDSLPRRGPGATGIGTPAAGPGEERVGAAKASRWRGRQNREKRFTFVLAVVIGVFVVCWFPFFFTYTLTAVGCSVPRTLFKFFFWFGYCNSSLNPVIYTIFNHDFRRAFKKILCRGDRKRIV
Procedure: To evaluate the activity of compounds in radioligand binding assays, Human adrenergic α2A receptor obtained from recombinant cell membrane from Milipore. Binding experiments were carried out in Tris-HCl buffer (50 mM Tris-HCl buffer, pH 7.4, 5 mM Mgcl2, 1 mM Cacl2, 0.2% BSA) as recommended by Milipore. Compounds were incubated with 2 nM [^3H]MK-912 for 60 min at 25° C. Non-specific binding was estimated in the presence of 10 μM Rauwolscine. Receptor proteins were harvested on 0.33% PEI(poly-ethylenemine) soaked GFC filter mat, the specifically bound [^3H]MK-912 were counted to determine total binding. Compounds were screened at various concentrations, using 1% DMSO as vehicle. percent inhibition of specific binding was determined. Biochemical assay results are presented as the percent Inhibition of specific binding in Table B1b, or estimated Ki values in Table B1c.

| SMILES | Percentage inhibition of ligand binding, Adrenergic α1B (0.1 μM) [1] | Percentage inhibition of ligand binding, Adrenergic α1B (0.3 μM) [1] | Percentage inhibition of ligand binding, Adrenergic α2B (10 nM) [2] | Percentage inhibition of ligand binding, Adrenergic α2B (30 nM) ([2]; 30 nM compound) | Percentage inhibition of ligand binding, Adrenergic α2B (0.1 μM) ([2]; 0.1 μM compound) | Percentage inhibition of ligand binding, Adrenergic α2A (0.1 μM) [3] | Percentage inhibition of ligand binding, Adrenergic α2A (0.3 μM) ([3]; 0.3 μM compound, 0.3 µM) | further results |
| --- | --- | --- | --- | --- | --- | --- | --- | --- |
| CC(O)(Cn1c2c(c3cc(F)ccc31)C1CCCN1CC2)c1cccnc1 (stereo not drawn) [51a] | −6% | 19% | 79% | 93% | 97% | 16% | 39% |  |
| Cc1cc(F)c2c(c1)c1c(n2CC(C)(O)c2cccnc2)CC2CCCN2C1 (single isomer, unassigned) [61d] | 0% | 1% | 0% | 11% | 23% | −10% | −4% |  |
| Cc1ccc2c(c1)c1c(n2CC(O)c2cc[n+]([O-])cc2)CCN2CCCC12 (stereo not drawn) [compound 22, 4-(1-hydroxy-2-(10-methyl-2,3,5,6-tetrahydro-1H-indolizino[7,8-b]indol-7 (11cH)-yl)ethyl)pyridine 1-oxide] |  |  |  |  |  |  |  | inhibition at 0.1 µM [1]: 11%; inhibition at 0.3 µM [1]: 30%; inhibition at 0.01 µM [2]: 30%; inhibition at 0.03 µM ([2]; 30 nM compound, read-out: Percentage inhibition of ligand binding, Adrenergic α2B (30 nM)): 61%; inhibition at 0.1 µM ([2]; 0.1 μM compound, read-out: Percentage inhibition of ligand binding, Adrenergic α2B (0.1 μM)): 72%; inhibition at 0.1 µM [3]: 7%; inhibition at 0.3 µM ([3]; 0.3 μM compound, read-out: Percentage inhibition of ligand binding, Adrenergic α2A (0.3 μM)): 15% |
| Cc1cc(F)c2c(c1)c1c(n2CC(C)(O)c2ccncc2)CC2CCCN2C1 (single isomer, unassigned) [62c] | 10% | 15% | 47% | 52% | 65% | 5% | 21% |  |
| Cc1ccc2c(c1)c1c(n2CC(C)(O)c2cccnc2)CC2CCC1N2C (single isomer, unassigned) [101d] | 4% | 8% | −2% | −3% | 9% | −10% | 3% |  |
| Cc1ccc2c(c1)c1c(n2CC(C)(O)c2ccc(F)cc2)CN2CCC1C2 (single isomer, unassigned) [134b] | 29% |  |  | 40% |  | 7% |  |  |
| Cc1cc(F)c2c(c1)c1c(n2CC(O)c2ccncc2)CCN2CCCC12 (single isomer, unassigned) [137c] |  |  |  | 10% |  |  | 2% | inhibition at 0.1 µM [1]: 12%; inhibition at 0.3 µM [1]: 14%; inhibition at 0.01 µM [2]: 14%; inhibition at 0.1 µM [3]: 10% |
| Cc1ccc2c(c1)c1c(n2CC(O)c2cccnc2)CC2CCCN2C1 (single isomer, unassigned) [27b] | 13% | 41% | 26% | 48% | 67% | 10% |  | Percentage inhibition of ligand binding, Adrenergic α2A (0.3 μM) ([3]; 0.3 μM compound): 20% |
| CC(O)(Cn1c2c(c3cc(Cl)cc(F)c31)CN1CCCC1C2)c1ccncc1 (single isomer, unassigned) [86b] | 3% | 15% | 14% | 17% |  | 11% | 14% |  |
| Cc1ccc2c(c1)c1c(n2CC(O)c2ccncc2)CCN2CCCC12 (single isomer, unassigned) [Compound No. 178c] | 94% and 96% |  |  |  |  | 35% |  |  |
| CC(O)(Cn1c2c(c3cc(F)ccc31)C1CCCN1CC2)c1cccnc1 (stereo not drawn) [compound 51] |  |  |  |  |  |  |  | Ki ([2]; estimated Ki, read-out: Ki α2B): 1.58 nM |
| Cc1ccc2c(c1)c1c(n2CC(O)c2ccncc2)CCN2CCCC12 (single isomer, unassigned) [Compound No. 178a] | 73% |  |  |  |  |  |  |  |
| Cc1ccc2c(c1)c1c(n2CC(O)c2ccncc2)CCN2CCCC12 (single isomer, unassigned) [Compound No. 178b] | 69% |  |  |  |  | 55% |  |  |
